In patent publication US20130165419A1, “COMBINATION ANTI-INFLAMMATORY OPHTHALMIC COMPOSITIONS” (INSITE VISION INCORPORATED, priority 2011, published 2013):

Test: Release in the rabbit eye, measured by drug contained in the aqueous humor
Format: in vivo
Settings: released from the gel of the ophthalmically acceptable vehicle
Protocol: The viscous gels that result upon administration of the aqueous suspensions of this invention to the eye have residence times in the eye ranging from about 2 to about 12 hours, e.g., from about 3 to about 6 hours. The active ingredients contained in these ophthalmically acceptable vehicles are released from the gels at rates that depend on such factors as the active ingredient itself and its physical form, the extent of drug loading and the pH of the system, as well as on any drug delivery adjuvants, such as ion exchange resins compatible with the ocular surface, which can also be present.

release rates in the rabbit eye, as measured by fluorometholone contained in the aqueous humor: in excess of four hours
SMILES: CC(=O)[C@@]1(O)CC[C@H]2[C@@H]3C[C@H](C)C4=CC(=O)C=C[C@]4(C)[C@@]3(F)[C@@H](O)C[C@@]21C [fluorometholone]
